US20260069588A1, “VEPDEGESTRANT FOR USE IN TREATING CANCER” (Arvinas Operation, Inc., priority 2022, published 2026)
Where two headings read alike, the source gives them in different places. Marks after values point to notes of the source that are not given here.

Experiments:
[1] = Turnover in liver microsomes and hepatocytes; assay type: in vitro ADME; settings: across species
Description: No human unique metabolites were observed. Although it is not thought to be formed via enzymatic conversion, the epimer Compound B was formed to a limited extent in animals.

[2] = target: progesterone receptor (Homo sapiens, UniProt P06401); assay: Secondary pharmacodynamics binding, progesterone receptor; settings: in vitro
[3] = human, in vivo
Protocol: Study Design: In the FIH Study: Part A is a Phase I monotherapy dose escalation, and Part B is a Phase 2 monotherapy expansion at 2 RP2D doses (200 mg QD, 500 mg QD).

[4] = target: CK1α (Homo sapiens, UniProt P48729); assay: Cereblon neomorphic substrate degradation, CK1α; assay type: cell-based; settings: in vitro
Description: These drugs bind to cereblon and promote the degradation of novel (neomorphic) substrates.

[5] = female, human, in vivo
Description: The severity of adverse events was graded according to the National Cancer Institute Common Terminology Criteria for Adverse Events (NCI CTCAE) version 5.0.

[6] = 28-day GLP oral toxicity study in rats; settings: both sexes, in vivo; rat, 28 days oral
Protocol: There were no mortalities and no Compound A-related clinical observations or changes in BWs or food consumption, and no FOB observations or ophthalmology findings. Minor clinical pathology changes at the 100 mg/kg/day dose level (minimally higher lymphocyte count in males, minimally lower calcium concentration in both sexes, minimally lower albumin concentration in males, and mildly lower cholesterol concentration in females) were potentially Compound A-related but were reversible and were not considered adverse.
Compound A-related microscopic findings included increased ovarian cysts in females administered ≥3 mg/kg/day and atrophy of the uterus and of the cervical and vaginal mucosal epithelium in females administered ≥10 mg/kg/day. […] Similar findings had been noted in a few animals in the 7-day study.

[7] = target: hERG channel (Homo sapiens, UniProt Q12809); assay: hERG channel inhibition; assay type: biochemical
Protocol: The pivotal nonclinical safety studies were conducted in the US in accordance with GLP regulations per the US 21 CFR Part 58. These include the cardiovascular safety pharmacology study in dogs, the pivotal 28-day and 3-month repeat-dose toxicology studies in rats and dogs, and an in vitro phototoxicity assay. The bacterial reverse mutation assay, in vitro micronucleus assay, and 2 in vitro hERG studies were conducted in the UK in accordance with the UK Good Laboratory Practice Monitoring Authority, MHRA: Good Laboratory Practice Regulations 1999, Statutory Instrument 1999 No. 3106 as amended by the Good Laboratory Practice (Codification Amendments Etc.) Regulations, 2004, Statutory Instrument 2004, No. 994; and the OECD GLP and OECD Principles on Good Laboratory Practice ENV/MC/CHEM (98) 17 (Revised in 1997, Issued January 1998).accordance with the OECD Principles of Good Laboratory Practice and as accepted by Regulatory Authorities throughout the European Union, United States of America (FDA), Japan (MHLW), and other countries that are signatories to the OECD Mutual Acceptance of Data Agreement.

[8] = Plasma protein binding, monkey; assay type: in vitro ADME; settings: read-out: free fraction
[9] = target: T1, ER (Rattus norvegicus, UniProt P06211); assay: Uterine wet weight in juvenile rats (ER agonist activity); assay type: in vivo
T1 construct: uterine wet weight in juvenile rats; from tissue; host or cells: uterus of juvenile rats, in vivo

[10] = Tablet performance in fed and fasted dogs; assay type: in vivo, dog; settings: 50 mg tablet QD, fed vs fasted
Protocol: For 6 days, dogs received a single 50 mg tablet QD after pre-treatment with pentagastrin. Little accumulation was observed over the course of the study. In addition, exposure in chow-fed dogs was similar to that obtained for solution formulations administered at a similar dose. To reduce the pill burden, a 100 mg tablet was developed and when tested in dogs, similar exposure was observed when dogs were dosing with a 50 mg tablet.

[11] = 7-day oral dose range finding toxicity study in dogs; assay type: in vivo; settings: dog, up to 120 mg/kg/day, 7 days
[12] = target: P-gp (Homo sapiens, UniProt P08183); assay: Efflux transporter substrate assessment (inside-out vesicular assay), P-gp; assay type: in vitro ADME
[13] = Plasma protein binding, dog; assay type: in vitro ADME; settings: read-out: free fraction
[14] = target: BCRP (Homo sapiens, UniProt Q9UNQ0); assay: Efflux transporter substrate assessment (inside-out vesicular assay), BCRP; assay type: in vitro ADME
Sequence of BCRP (Q9UNQ0 whole entry): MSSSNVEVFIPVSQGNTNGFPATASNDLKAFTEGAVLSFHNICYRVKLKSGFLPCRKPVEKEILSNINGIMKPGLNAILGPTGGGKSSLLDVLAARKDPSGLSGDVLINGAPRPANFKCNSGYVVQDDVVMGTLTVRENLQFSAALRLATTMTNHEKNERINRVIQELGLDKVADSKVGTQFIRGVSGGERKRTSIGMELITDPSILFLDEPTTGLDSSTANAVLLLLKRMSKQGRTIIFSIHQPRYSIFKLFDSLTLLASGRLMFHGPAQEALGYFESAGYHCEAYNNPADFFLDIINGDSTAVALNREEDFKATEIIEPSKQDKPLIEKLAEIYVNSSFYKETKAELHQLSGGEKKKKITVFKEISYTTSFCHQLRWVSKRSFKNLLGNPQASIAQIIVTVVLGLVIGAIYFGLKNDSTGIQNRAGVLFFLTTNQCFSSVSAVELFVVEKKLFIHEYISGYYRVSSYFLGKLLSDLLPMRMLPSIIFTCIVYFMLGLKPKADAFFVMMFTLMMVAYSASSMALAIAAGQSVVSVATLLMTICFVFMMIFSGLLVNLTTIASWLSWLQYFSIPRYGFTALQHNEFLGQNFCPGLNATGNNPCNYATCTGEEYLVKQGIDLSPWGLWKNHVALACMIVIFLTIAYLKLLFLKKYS

Sequence of hERG channel (Q12809 whole entry): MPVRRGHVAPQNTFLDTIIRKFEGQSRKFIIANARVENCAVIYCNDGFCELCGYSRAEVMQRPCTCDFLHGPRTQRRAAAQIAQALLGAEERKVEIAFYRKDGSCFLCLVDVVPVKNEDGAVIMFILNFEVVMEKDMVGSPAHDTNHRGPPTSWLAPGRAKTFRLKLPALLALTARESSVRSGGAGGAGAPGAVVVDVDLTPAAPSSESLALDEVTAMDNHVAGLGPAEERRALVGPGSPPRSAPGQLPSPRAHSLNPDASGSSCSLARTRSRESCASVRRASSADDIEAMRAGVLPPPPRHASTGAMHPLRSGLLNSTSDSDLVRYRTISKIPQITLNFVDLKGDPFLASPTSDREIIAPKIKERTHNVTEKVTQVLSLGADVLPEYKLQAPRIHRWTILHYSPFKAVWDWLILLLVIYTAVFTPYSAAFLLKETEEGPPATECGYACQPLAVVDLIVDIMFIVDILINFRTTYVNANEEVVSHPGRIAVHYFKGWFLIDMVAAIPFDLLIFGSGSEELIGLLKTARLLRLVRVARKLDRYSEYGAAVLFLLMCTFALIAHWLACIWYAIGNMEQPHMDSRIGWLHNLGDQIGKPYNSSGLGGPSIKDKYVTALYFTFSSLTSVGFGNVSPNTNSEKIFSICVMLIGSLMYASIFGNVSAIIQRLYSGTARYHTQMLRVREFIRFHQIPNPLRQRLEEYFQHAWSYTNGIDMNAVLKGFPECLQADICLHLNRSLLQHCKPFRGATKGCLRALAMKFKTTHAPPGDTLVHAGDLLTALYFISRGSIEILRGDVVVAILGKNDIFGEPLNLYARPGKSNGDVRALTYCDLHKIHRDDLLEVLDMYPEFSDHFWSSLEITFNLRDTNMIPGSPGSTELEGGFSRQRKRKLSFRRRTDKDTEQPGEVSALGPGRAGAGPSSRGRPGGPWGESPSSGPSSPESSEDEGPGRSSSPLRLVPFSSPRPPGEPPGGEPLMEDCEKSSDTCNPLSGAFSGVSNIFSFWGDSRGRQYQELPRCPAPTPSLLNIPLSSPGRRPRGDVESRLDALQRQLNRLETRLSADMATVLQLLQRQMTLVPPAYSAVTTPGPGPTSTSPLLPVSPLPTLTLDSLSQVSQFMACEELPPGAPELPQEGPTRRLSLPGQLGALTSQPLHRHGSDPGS
Sequence of P-gp (P08183 whole entry): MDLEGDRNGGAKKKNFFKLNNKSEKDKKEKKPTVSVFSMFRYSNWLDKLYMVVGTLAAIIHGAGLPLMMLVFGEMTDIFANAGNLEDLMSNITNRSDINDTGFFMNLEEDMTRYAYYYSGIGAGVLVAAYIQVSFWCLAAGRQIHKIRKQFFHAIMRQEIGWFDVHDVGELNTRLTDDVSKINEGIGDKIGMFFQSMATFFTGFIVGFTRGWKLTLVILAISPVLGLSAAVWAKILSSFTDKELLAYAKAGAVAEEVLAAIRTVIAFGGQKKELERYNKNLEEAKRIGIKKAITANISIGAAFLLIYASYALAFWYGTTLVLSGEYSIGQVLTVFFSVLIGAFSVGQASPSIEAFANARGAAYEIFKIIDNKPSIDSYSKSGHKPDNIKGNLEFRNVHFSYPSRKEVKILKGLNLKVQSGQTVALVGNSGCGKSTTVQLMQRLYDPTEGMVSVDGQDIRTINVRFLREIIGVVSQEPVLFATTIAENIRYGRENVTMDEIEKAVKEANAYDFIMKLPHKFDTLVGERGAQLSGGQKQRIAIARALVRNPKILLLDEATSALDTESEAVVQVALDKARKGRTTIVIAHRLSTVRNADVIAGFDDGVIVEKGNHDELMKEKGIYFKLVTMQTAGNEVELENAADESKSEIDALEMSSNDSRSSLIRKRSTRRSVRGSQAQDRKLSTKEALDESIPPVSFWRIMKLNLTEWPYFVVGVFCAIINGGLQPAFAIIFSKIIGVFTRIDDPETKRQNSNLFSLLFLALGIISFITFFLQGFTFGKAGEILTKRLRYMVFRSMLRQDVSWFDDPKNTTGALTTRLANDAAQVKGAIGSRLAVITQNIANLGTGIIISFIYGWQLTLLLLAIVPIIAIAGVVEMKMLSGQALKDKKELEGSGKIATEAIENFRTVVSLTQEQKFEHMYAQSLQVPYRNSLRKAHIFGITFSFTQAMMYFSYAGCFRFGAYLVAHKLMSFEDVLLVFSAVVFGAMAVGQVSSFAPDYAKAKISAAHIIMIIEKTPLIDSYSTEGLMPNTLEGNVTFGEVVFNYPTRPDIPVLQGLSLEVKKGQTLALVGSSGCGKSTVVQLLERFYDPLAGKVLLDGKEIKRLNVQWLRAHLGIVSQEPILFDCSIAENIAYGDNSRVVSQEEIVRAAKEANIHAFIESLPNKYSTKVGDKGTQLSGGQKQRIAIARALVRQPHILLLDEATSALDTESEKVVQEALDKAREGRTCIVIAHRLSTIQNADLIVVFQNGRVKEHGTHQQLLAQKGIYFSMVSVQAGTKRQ
Sequence of progesterone receptor (P06401 whole entry, species assumed): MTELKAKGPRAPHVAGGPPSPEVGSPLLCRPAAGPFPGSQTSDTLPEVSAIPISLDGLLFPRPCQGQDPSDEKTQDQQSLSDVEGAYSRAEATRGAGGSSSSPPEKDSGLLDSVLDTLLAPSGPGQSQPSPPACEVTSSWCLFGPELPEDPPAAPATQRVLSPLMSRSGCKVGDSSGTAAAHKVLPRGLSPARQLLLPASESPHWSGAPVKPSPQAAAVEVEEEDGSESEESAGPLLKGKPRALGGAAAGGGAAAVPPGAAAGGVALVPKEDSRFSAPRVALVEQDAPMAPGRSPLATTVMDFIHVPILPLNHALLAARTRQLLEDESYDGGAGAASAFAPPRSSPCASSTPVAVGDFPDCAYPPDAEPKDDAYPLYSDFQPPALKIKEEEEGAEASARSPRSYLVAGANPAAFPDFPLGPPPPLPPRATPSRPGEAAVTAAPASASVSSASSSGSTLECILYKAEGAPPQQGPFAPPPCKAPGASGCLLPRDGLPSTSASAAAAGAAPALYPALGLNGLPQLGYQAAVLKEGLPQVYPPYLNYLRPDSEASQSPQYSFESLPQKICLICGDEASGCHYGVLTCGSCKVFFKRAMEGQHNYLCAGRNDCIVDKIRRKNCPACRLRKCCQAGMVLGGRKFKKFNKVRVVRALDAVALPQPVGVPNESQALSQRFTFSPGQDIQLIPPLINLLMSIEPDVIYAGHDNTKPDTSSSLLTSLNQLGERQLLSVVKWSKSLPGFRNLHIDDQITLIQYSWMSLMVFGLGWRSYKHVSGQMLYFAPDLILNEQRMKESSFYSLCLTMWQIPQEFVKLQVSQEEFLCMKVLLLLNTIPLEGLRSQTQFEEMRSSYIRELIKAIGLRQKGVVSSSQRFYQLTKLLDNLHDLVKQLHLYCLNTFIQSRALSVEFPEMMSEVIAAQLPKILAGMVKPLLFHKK
T1 sequence (P06211 whole entry): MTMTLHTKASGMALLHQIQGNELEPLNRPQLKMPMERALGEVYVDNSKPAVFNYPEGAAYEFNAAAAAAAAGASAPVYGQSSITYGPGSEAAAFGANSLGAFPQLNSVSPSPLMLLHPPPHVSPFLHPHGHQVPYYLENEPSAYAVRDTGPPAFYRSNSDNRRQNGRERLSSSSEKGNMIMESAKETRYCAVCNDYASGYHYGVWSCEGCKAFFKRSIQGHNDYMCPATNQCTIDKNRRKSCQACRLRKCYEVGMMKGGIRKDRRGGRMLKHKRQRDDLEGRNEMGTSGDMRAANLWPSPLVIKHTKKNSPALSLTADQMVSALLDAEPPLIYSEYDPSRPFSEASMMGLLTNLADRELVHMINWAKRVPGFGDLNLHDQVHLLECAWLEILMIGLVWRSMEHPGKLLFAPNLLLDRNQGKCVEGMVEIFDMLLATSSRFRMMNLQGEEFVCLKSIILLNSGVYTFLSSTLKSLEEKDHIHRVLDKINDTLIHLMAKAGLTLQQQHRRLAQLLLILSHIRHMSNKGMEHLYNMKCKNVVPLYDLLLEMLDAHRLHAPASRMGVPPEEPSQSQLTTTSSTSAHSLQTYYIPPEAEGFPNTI

Structure (SMILES): O=C1CC[C@H](N2Cc3cc(N4CCN(CC5CCN(c6ccc([C@@H]7c8ccc(O)cc8CC[C@@H]7c7ccccc7)cc6)CC5)CC4)ccc3C2=O)C(=O)N1 [Compound A, (S)-3-(5-(4-((1-(4-((1R,2S)-6-hydroxy-2-phenyl-1,2,3,4-tetrahydronaphthalen-1-yl)phenyl)piperidin-4-yl)methyl)piperazin-1-yl)-1-oxoisoindolin-2-yl)piperidine-2,6-dione]
- turnover in liver microsomes and hepatocytes [1]: relatively low turnover
- binding [2]: bound
- CL/F ([3]; 30 mg): 7.4 L/h
- Rac (AUCtau) ([3]; 30 mg): 2.6
- CL/F ([3]; 60 mg): 8.2 L/h
- Rac (AUCtau) ([3]; 60 mg): 2.6
- Tmax ([3]; 60 mg): 4.2 h
- CL/F ([3]; 100 mg): 11.2 L/h
- Rac (AUCtau) ([3]; 100 mg): 2.1
- CL/F ([3]; 120 mg): 8.8 L/h
- Cmax ([3]; 120 mg): 799 ng/mL
- Rac (AUCtau) ([3]; 120 mg): 2.2
- CL/F ([3]; 180 mg): 9.4 L/h
- Cmax ([3]; 180 mg): 1062 ng/mL
- Rac (AUCtau) ([3]; 180 mg): 2.3
- Tmax ([3]; 180 mg): 5.0 h
- AUCtau ([3]; 200 mg): 15459 ng·h/mL
- CL/F ([3]; 200 mg): 12.9 L/h
- Cmax ([3]; 200 mg): 866 ng/mL
- Rac (AUCtau) ([3]; 200 mg): 1.9
- Tmax ([3]; 200 mg): 5.0 h
- CL/F ([3]; 250 mg): 12.2 L/h
- CL/F ([3]; 360 mg): 13.9 L/h
- Rac (AUCtau) ([3]; 360 mg): 2.2
- CL/F ([3]; 500 mg): 14.5 L/h
- Cmax ([3]; 500 mg): 1883 ng/mL
- Rac (AUCtau) ([3]; 500 mg): 2.2
- AUCtau ([3]; 700 mg): 26572 ^e ng·h/mL
- Cmax ([3]; 700 mg): 1530 ^e ng/mL
- Rac (AUCtau) ([3]; 700 mg): 1, 4 ^g
- Tmax ([3]; 700 mg): 6.0 g·h
- degradation of CK1α [4]: did not degrade
- TEAE COVID-19 [5]: 11.8%
- NOAEL at 28 days [6]: 100 mg/kg/day
- IC50 [7]: > 25.1 µM
- unbound Cmax margin to hERG IC50 ([7]; recommended Phase 3 dose of 200 mg): approximately 170 ×
- fraction unbound at 1 μM [8]: 0.04
- uterine wet weight [9]: did not increase uterine wet weight
- increase in AUC in fed dogs [10]: 3 fold
- tolerability [11]: well tolerated
- substrate of P-gp [12]: unlikely to be a substrate
- fraction unbound at 1 μM [13]: 0.026
- substrate of BCRP [14]: unlikely to be a substrate
